Reference: ChEMBL document CHEMBL5724696, “Autophagy assay results for EUbOPEN Chemogenomics Library” (2024)

Key:
Type in all cases: functional, Homo sapiens
U2OS [1] = assay: (§1) Here: values are normalized to the negative (DMSO; defined as 0% autophagy induction) and positive (250nM Torin1; mTOR inhibitor; defined as maximal inducer of autophagy = 100%) control compounds and represented as % of autophagy induction. […] The impact of autophagy induction on cells is complex and depends on the affected target. As such, the magnitude of a phenotype may not be equally mirrored in the %-value of autophagy induction and vice versa. The dynamics of the induction may indicate the mode of activation: e.g. activation via phosphorylation or a signaling cascade may occur fast, while activation via transcription factors may take considerably longer. […] Of note, treatment concentrations may be sub-optimal for specific compounds, leading to false negative annotations.; settings: Culturing Media DMEM, 1 % Penicillin/Streptomycin, 10% Fetal bovin serum Add-On: No, Screening Media Control DMEM, Screening Media Samples DMEM
U2OS [2] = assay: as §1; settings: Culturing Media DMEM, 1 % Penicillin/Streptomycin, 10% Fetal bovin serum Add-On: No, Screening Media Control DMEM, Screening Media Samples DMEM; remark: listed apart in the source
TERT-RPE1 = assay: as §1; settings: Culturing Media DMEM/F12 (1:1), 1 % Penicillin/Streptomycin, 10% Fetal bovin serum Add-On: No, Screening Media Control DMEM/F12 (1:1), Screening Media Samples DMEM/F12 (1:1)
[3] = Compound Concentration 0.5 uM, Timepoint 12 hours
[4] = Compound Concentration 0.5 uM, Timepoint 24 hours
[5] = Compound Concentration 0.5 uM, Timepoint 36 hours
[6] = Compound Concentration 0.5 uM, Timepoint 60 hours
[7] = Compound Concentration 2 uM, Timepoint 12 hours
[8] = Compound Concentration 2 uM, Timepoint 24 hours
[9] = Compound Concentration 2 uM, Timepoint 36 hours
[10] = Compound Concentration 2 uM, Timepoint 60 hours
[11] = Compound Concentration 10 uM, Timepoint 12 hours
[12] = Compound Concentration 10 uM, Timepoint 24 hours
[13] = Compound Concentration 10 uM, Timepoint 36 hours
[14] = Compound Concentration 10 uM, Timepoint 60 hours

SMILES	autophagy induction (U2OS [1]; [3])	autophagy induction (U2OS [1]; [4])	autophagy induction (U2OS [1]; [5])	autophagy induction (U2OS [1]; [6])	autophagy induction (U2OS [1]; [7])	autophagy induction (U2OS [1]; [8])	autophagy induction (U2OS [1]; [9])	autophagy induction (U2OS [1]; [10])	autophagy induction (U2OS [1]; [11])	autophagy induction (U2OS [1]; [12])	autophagy induction (U2OS [1]; [13])	autophagy induction (U2OS [1]; [14])	autophagy induction (U2OS [2]; [3])	autophagy induction (U2OS [2]; [4])	autophagy induction (U2OS [2]; [5])	autophagy induction (U2OS [2]; [6])	autophagy induction (U2OS [2]; [7])	autophagy induction (U2OS [2]; [8])	autophagy induction (U2OS [2]; [9])	autophagy induction (U2OS [2]; [10])	further results
Cc1c(P(=S)(c2ccccc2)c2ccccc2)n2ccccc2[n+]1C/C=C/c1ccccc1.[Br-]	-3.655%	0.9546%	-1.282%	2.215%	-8.9%	-2.047%	1.308%	3.722%	47.8904%	55.2067%	55.7211%	73.829%	-4.037%	-2.741%	-2.914%	-1.509%	-1.2597%	-1.1621%	-2.341%	-2.536%	autophagy induction (U2OS [2]; [11]): -27.5654%; autophagy induction (U2OS [2]; [12]): -9.802%; autophagy induction (U2OS [2]; [13]): -1.3311%; autophagy induction (U2OS [2]; [14]): 3.649%; autophagy induction (TERT-RPE1; [3]): -3.105%; autophagy induction (TERT-RPE1; [4]): -8.592%; autophagy induction (TERT-RPE1; [5]): -12.0302%; autophagy induction (TERT-RPE1; [6]): -17.0508%; autophagy induction (TERT-RPE1; [7]): 2.878%; autophagy induction (TERT-RPE1; [8]): -0.5859%; autophagy induction (TERT-RPE1; [9]): 1.195%; autophagy induction (TERT-RPE1; [10]): -1.818%; autophagy induction (TERT-RPE1; [11]): 24.7841%; autophagy induction (TERT-RPE1; [12]): 51.8106%; autophagy induction (TERT-RPE1; [13]): 73.7567%; autophagy induction (TERT-RPE1; [14]): 96.4076%
CN(C(=O)Cc1ccc(Cl)c(Cl)c1)C(CN1CCCC1)c1cccc(OCC(=O)O)c1.Cl (stereo not drawn)	2.144%	-2.707%	1.07%	1.175%	-9.959%	-4.957%	-10.0899%	-9.274%	-7.228%	-6.505%	0.1565%	0.07233%	-12.8922%	-7.849%	-3.698%	-1.542%	-9.267%	-3.553%	-1.479%	-2.0456%	autophagy induction (U2OS [2]; [11]): -0.2023%; autophagy induction (U2OS [2]; [12]): 1.762%; autophagy induction (U2OS [2]; [13]): 0.1182%; autophagy induction (U2OS [2]; [14]): 0.3636%; autophagy induction (TERT-RPE1; [3]): -10.9051%; autophagy induction (TERT-RPE1; [4]): -12.2301%; autophagy induction (TERT-RPE1; [5]): -15.6398%; autophagy induction (TERT-RPE1; [6]): -20.341%; autophagy induction (TERT-RPE1; [7]): -5.691%; autophagy induction (TERT-RPE1; [8]): -6.772%; autophagy induction (TERT-RPE1; [9]): -9.058%; autophagy induction (TERT-RPE1; [10]): -11.2679%; autophagy induction (TERT-RPE1; [11]): -5.196%; autophagy induction (TERT-RPE1; [12]): -4.57%; autophagy induction (TERT-RPE1; [13]): -3.728%; autophagy induction (TERT-RPE1; [14]): -2.992%
CN(C)S(=O)(=O)c1ccc(NC(=S)N2CCC(C(O)(c3ccccc3)c3ccccc3)CC2)cc1	4.873%	8.285%	-1.545%	-6.741%	-9.723%	-10.0932%	-2.641%	-5.443%	-2.358%	-3.276%	-0.5558%	-1.95%	-3.164%	1.478%	0.3125%	1.161%	-4.133%	-2.924%	-1.588%	-1.351%	autophagy induction (U2OS [2]; [11]): -4.693%; autophagy induction (U2OS [2]; [12]): -0.2636%; autophagy induction (U2OS [2]; [13]): 0.0362%; autophagy induction (U2OS [2]; [14]): -2.232%; autophagy induction (TERT-RPE1; [3]): -8.089%; autophagy induction (TERT-RPE1; [4]): -8.809%; autophagy induction (TERT-RPE1; [5]): -7.846%; autophagy induction (TERT-RPE1; [6]): -8.279%; autophagy induction (TERT-RPE1; [7]): -6.98%; autophagy induction (TERT-RPE1; [8]): -8.186%; autophagy induction (TERT-RPE1; [9]): -8.002%; autophagy induction (TERT-RPE1; [10]): -9.897%; autophagy induction (TERT-RPE1; [11]): -4.6942%; autophagy induction (TERT-RPE1; [12]): -5.029%; autophagy induction (TERT-RPE1; [13]): -1.466%; autophagy induction (TERT-RPE1; [14]): -2.059%
